Reference: PubChem BioAssay (NCI)
Where “and” joins values, the source holds several entries; their conditions need not be identical. Equal entries are not always repeated.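 Tested at 5 concentrations; 48 h exposure; 96-well plates; endpoints linearly interpolated, else capped at highest concentration. GI50 = concentration required for 50% inhibition of growth. Definition used: TGI = concentration required for complete inhibition of growth.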

What was measured:
Experiment in all cases: inhibition of tumour cell growth, NCI panel, 48 h
[1] = test system: NCI-H23 lung
[2] = test system: HCT-116 colon
[3] = test system: U251 CNS
[4] = test system: KM12 colon
[5] = test system: HT29 colon
[6] = test system: SW-620 colon
[7] = test system: CCRF-CEM leukemia
[8] = test system: IGROV1 ovarian
[9] = test system: CAKI-1 renal
[10] = test system: TK-10 renal

Structure (SMILES): COc1ccc2c(CCNS(=O)(=O)c3ccccc3)c(C(C)=O)[nH]c2c1[N+](=O)[O-]
- TGI [1]: > 100 µM
- TGI [2]: > 100 µM
- TGI [3]: > 100 µM
- TGI [4]: > 100 µM
- TGI [5]: > 100 µM
- TGI [6]: > 100 µM
- TGI [7]: > 100 µM
- TGI [8]: > 100 µM

Structure (SMILES): C=CCCC12CCCC(=O)C1Sc1ccc3ccccc3c12 (stereo not drawn)
- TGI [1]: 55.7 µM
- TGI [9]: 26.4 µM
- TGI [3]: 33.6 µM
- TGI [4]: 31.2 µM
- TGI [10]: 51.2 µM
- TGI [5]: 67.2 µM
- TGI [6]: 58.6 µM
- TGI [7]: 53.8 µM
- TGI [8]: > 100 µM

Structure (SMILES): CCN(CC)CCNc1ccc(CO)c2sc3ccccc3c(=O)c12
- GI50 [1]: 3.14 µM and 13.6 µM
- TGI [1]: 16.4 µM and 22.7 µM and 29.3 µM
- GI50 [2]: 4.28 µM
- GI50 [9]: 3.03 µM
- TGI [9]: 26.4 µM [middle of 4 runs]
- GI50 [3]: 3.97 µM and 12.6 µM
- TGI [3]: 23.7 µM [middle of 4 runs]
- TGI [4]: 26 µM [middle of 4 runs]
- GI50 [10]: 2.96 µM
- TGI [10]: 11.4 µM and 24.9 µM
- GI50 [6]: 4.69 µM
- TGI [6]: 17.4 µM [middle of 4 runs]

Structure (SMILES): S=C(S)NCCCn1ccnc1
- TGI [1]: > 100 µM
- TGI [2]: > 100 µM
- TGI [9]: > 100 µM
- TGI [3]: > 100 µM
- TGI [4]: > 100 µM
- TGI [10]: > 100 µM
- TGI [5]: > 100 µM
- TGI [6]: > 100 µM
- TGI [8]: > 100 µM

Structure (SMILES): COc1cc2c(c(OC)c1OC)C(=O)c1c-2n(CCCN)c(=O)c2cc([N+](=O)[O-])ccc12
- GI50 [1]: 1.52 µM
- TGI [1]: 3.81 µM
- GI50 [2]: 0.128 µM
- TGI [2]: 0.274 µM
- GI50 [9]: 0.535 µM
- TGI [9]: 2.24 µM
- GI50 [4]: 0.161 µM
- TGI [4]: 0.369 µM
- GI50 [10]: 0.616 µM
- TGI [10]: 1.3 µM
- GI50 [5]: 0.301 µM
- GI50 [6]: 0.31 µM
- TGI [6]: 3.3 µM
- GI50 [7]: 0.285 µM
- TGI [7]: 0.834 µM
- GI50 [8]: 1.43 µM
- TGI [8]: 3.05 µM

Structure (SMILES): CN(C)c1ccc2c(SCC(=O)OCC(=O)[C@@]3(O)CC[C@H]4[C@@H]5CCC6=CC(=O)C=C[C@]6(C)[C@H]5C(=O)C[C@@]43C)c3ccc(N(C)C)cc3nc2c1
- TGI [1]: 64.9 µM
- TGI [2]: > 100 µM
- TGI [9]: 60.8 µM
- TGI [3]: > 100 µM
- TGI [4]: > 100 µM
- TGI [10]: 48.8 µM
- TGI [5]: 25.4 µM
- TGI [6]: > 100 µM
- TGI [8]: > 100 µM

Structure (SMILES): CCCCCCCCCCSS(=O)(=O)c1ccc(C)cc1
- TGI [1]: 35.4 µM
- TGI [2]: 26.8 µM
- TGI [9]: 31.2 µM
- TGI [3]: 14.3 µM
- TGI [4]: 30.4 µM
- TGI [10]: 37.9 µM
- TGI [5]: 23.9 µM
- TGI [6]: 33.4 µM
- TGI [8]: 33.7 µM

Structure (SMILES): COc1ccc2c3c([nH]c2c1[N+](=O)[O-])C(C)N(C(=O)/C=C/c1ccccc1)CC3 (stereo not drawn)
- TGI [1]: > 100 µM
- TGI [9]: > 100 µM
- TGI [3]: > 100 µM
- TGI [4]: > 100 µM
- TGI [10]: > 100 µM
- TGI [5]: > 100 µM
- TGI [6]: > 100 µM
- TGI [7]: > 100 µM
- TGI [8]: > 100 µM

Structure (SMILES): O=C(CN1C(=O)c2ccccc2C1=O)OC1C=CCCC1 (stereo not drawn)
- TGI [2]: > 100 µM
- TGI [9]: > 100 µM
- TGI [3]: > 100 µM
- TGI [4]: > 100 µM
- TGI [10]: > 100 µM
- TGI [6]: > 100 µM
- TGI [7]: > 100 µM
- TGI [8]: > 100 µM

Structure (SMILES): COC(=O)/C1=C/C2CC(/C=C(/c3ccccc3)C(=O)O1)C2
- TGI [1]: 38.4 µM
- TGI [2]: 56.6 µM
- TGI [3]: 49.3 µM
- TGI [4]: 62 µM
- TGI [10]: > 100 µM
- TGI [5]: 65.4 µM
- TGI [6]: > 100 µM
- TGI [7]: 70.5 µM
- TGI [8]: > 100 µM

Structure (SMILES): CC(=O)c1ccc(NCn2nc(-c3ccccc3O)oc2=S)cc1
- GI50 [1]: 92.6 µM
- TGI [1]: > 100 µM
- GI50 [2]: > 100 µM
- TGI [2]: > 100 µM
- GI50 [9]: > 100 µM
- TGI [9]: > 100 µM
- GI50 [3]: 50.8 µM
- TGI [3]: > 100 µM
- GI50 [4]: > 100 µM
- TGI [4]: > 100 µM
- GI50 [10]: 67.1 µM
- TGI [10]: > 100 µM
- GI50 [5]: 47 µM
- TGI [5]: > 100 µM
- GI50 [6]: 29.8 µM
- TGI [6]: > 100 µM
- GI50 [8]: > 100 µM
- TGI [8]: > 100 µM

Structure (SMILES): CN1NC(c2ccccc2)=C(C#N)C(=O)CC1c1ccccc1Cl (stereo not drawn)
- TGI [1]: > 100 µM
- TGI [2]: > 100 µM
- TGI [9]: > 100 µM
- TGI [3]: > 100 µM
- TGI [4]: > 100 µM
- TGI [10]: > 100 µM
- TGI [5]: > 100 µM
- TGI [6]: > 100 µM
- TGI [7]: > 100 µM

Structure (SMILES): CCC1N2CCCCC2[C@@H]2c3[nH]c4ccccc4c3CCN12 (stereo partly drawn)
- TGI [1]: > 100 µM
- TGI [2]: > 100 µM
- TGI [9]: > 100 µM
- TGI [3]: > 100 µM
- TGI [10]: > 100 µM
- TGI [5]: > 100 µM
- TGI [6]: > 100 µM
- TGI [7]: > 100 µM
- TGI [8]: > 100 µM

Structure (SMILES): CC(=O)OC1CC(C)c2c1ncnc2N1CCN(C(=O)OC(C)(C)C)CC1 (stereo not drawn)
- GI50 [1]: 58.9 µM
- TGI [1]: > 100 µM
- GI50 [2]: 38.1 µM
- TGI [2]: > 100 µM
- GI50 [9]: 63.8 µM
- TGI [9]: > 100 µM
- GI50 [4]: 38.1 µM
- TGI [4]: > 100 µM
- GI50 [10]: 70.8 µM
- TGI [10]: > 100 µM
- GI50 [5]: 37.1 µM
- TGI [5]: 88.5 µM
- GI50 [6]: 42.9 µM
- TGI [6]: > 100 µM
- GI50 [7]: 32.9 µM
- TGI [7]: > 100 µM
- GI50 [8]: 92.5 µM
- TGI [8]: > 100 µM

Structure (SMILES): C[C@]1(O)CC(=O)[C@]2(O)C3=C(C=C[C@]2(O)C1)C(=O)c1c(O)cccc1C3=O
- GI50 [1]: 1.94 µM
- TGI [1]: 4.71 µM
- GI50 [2]: 0.649 µM
- TGI [2]: 2.56 µM
- GI50 [9]: 1.5 µM
- TGI [9]: 2.85 µM
- GI50 [3]: 6.02 µM
- TGI [3]: 21.5 µM
- GI50 [4]: 14 µM
- TGI [4]: 40.7 µM
- GI50 [10]: 2.27 µM
- TGI [10]: 3.97 µM
- GI50 [5]: 3.26 µM
- TGI [5]: > 100 µM
- GI50 [6]: 1.2 µM
- TGI [6]: 3.35 µM
- GI50 [7]: 0.342 µM
- TGI [7]: 3.33 µM

Structure (SMILES): C#Cc1cccc(N2C(=O)CC(=P(c3ccccc3)(c3ccccc3)c3ccccc3)C2=O)c1
- TGI [1]: > 100 µM
- TGI [2]: > 100 µM
- TGI [9]: > 100 µM
- TGI [3]: > 100 µM
- TGI [10]: > 100 µM
- TGI [5]: > 100 µM
- TGI [6]: > 100 µM
- TGI [7]: > 100 µM

Structure (SMILES): COc1cc2c(C#N)n3c(c2cc1OC)C(=O)C(c1ccccc1)Oc1ccccc1-3 (stereo not drawn)
- GI50 [1]: 3.04 µM
- TGI [1]: > 100 µM
- GI50 [2]: 3.23 µM
- TGI [2]: > 100 µM
- GI50 [3]: 2.77 µM
- TGI [3]: > 100 µM
- GI50 [4]: 3.36 µM
- TGI [4]: > 100 µM
- GI50 [10]: 3.35 µM
- TGI [10]: 21.3 µM
- GI50 [7]: 2.72 µM
- TGI [7]: 8.51 µM
- GI50 [8]: 7.41 µM
- TGI [8]: > 100 µM

Structure (SMILES): Cc1ccc(S(=O)(=O)NC(C)C(=O)O)cc1 (stereo not drawn)
- TGI [1]: > 100 µM
- TGI [9]: > 100 µM
- TGI [3]: > 100 µM
- TGI [4]: > 100 µM
- TGI [10]: > 100 µM
- TGI [5]: > 100 µM
- TGI [6]: > 100 µM
- GI50 [7]: 47.2 µM and > 100 µM
- TGI [7]: > 100 µM
- TGI [8]: > 100 µM
